The structures appear in SMILES notation.

These results are taken from US8377963B2, “Insulin-regulated aminopeptidase (IRAP) inhibitors and uses thereof” (Howard Florey Institute, priority 2007, dated 2013).

For assay [1], the target named is T1, Recombinant human LTA4H (Homo sapiens, UniProt P09960).
T1 construct: purchased Cayman Chemicals
T1 sequence (P09960 1-611): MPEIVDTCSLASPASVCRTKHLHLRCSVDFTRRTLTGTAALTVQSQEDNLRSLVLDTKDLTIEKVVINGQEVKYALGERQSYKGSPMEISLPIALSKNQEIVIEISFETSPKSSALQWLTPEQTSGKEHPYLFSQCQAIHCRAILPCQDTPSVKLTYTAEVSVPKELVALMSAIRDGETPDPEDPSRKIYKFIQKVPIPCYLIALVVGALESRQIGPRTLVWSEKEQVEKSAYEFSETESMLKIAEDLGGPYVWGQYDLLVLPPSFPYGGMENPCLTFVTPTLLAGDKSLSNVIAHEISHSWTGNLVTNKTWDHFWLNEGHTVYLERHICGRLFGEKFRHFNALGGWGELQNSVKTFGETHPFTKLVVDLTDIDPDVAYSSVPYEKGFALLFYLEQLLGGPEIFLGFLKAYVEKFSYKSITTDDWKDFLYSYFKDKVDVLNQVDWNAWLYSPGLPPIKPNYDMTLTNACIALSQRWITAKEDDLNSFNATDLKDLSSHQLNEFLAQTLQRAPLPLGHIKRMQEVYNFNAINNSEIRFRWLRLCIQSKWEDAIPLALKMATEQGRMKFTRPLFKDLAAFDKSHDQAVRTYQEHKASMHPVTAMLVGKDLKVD
Briefly: Leukotriene A4 hydrolase assay. The assay is classed as biochemical. The settings on record: read-out: % inhibition of the catalytic activity of the enzyme. As for the experimental part:
Leukotriene A4 hydrolase assay. Recombinant human LTA4H (Cayman Chemicals Michigan USA) (1-20 μg) was incubated at room temperature with alanine-p-nitroanilide as substrate in 50 mM Tris-HCl buffer, pH 8.0, containing 100 mM KCl with or without increasing concentrations of an inhibitor. The absorbance at 405 nm was measured at 10 min intervals.
(§1) Limited inhibition of control enzymes was observed.

Assay [2] has as its target T2, Aminopeptidase N (Sus scrofa, UniProt P15145).
T2 construct: purchased Sigma Aldrich
T2 sequence (P15145 1-963): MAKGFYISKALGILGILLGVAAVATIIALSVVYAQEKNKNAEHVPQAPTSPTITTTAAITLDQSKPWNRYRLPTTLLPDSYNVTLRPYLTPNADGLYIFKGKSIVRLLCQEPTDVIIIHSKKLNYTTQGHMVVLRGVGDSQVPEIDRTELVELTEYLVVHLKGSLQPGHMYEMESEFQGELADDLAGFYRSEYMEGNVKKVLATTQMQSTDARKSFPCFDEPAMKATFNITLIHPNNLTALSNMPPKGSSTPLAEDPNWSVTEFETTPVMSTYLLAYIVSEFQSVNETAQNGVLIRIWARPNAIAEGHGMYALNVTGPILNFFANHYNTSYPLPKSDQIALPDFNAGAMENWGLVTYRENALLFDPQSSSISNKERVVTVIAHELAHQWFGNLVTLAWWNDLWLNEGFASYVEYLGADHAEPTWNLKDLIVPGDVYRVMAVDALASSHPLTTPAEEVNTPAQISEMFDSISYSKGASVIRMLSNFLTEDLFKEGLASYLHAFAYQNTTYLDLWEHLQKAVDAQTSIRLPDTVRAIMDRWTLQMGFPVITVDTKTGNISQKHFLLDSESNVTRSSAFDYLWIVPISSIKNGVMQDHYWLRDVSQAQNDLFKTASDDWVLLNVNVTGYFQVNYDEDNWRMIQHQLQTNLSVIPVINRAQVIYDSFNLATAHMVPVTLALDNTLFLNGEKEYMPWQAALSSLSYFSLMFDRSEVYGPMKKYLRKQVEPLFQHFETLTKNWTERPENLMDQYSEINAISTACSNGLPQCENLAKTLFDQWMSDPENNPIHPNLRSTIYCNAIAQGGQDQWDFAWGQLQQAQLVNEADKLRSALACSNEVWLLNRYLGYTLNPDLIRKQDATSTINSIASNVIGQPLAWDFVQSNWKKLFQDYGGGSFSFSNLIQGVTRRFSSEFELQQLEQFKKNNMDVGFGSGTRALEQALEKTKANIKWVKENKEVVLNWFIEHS
In words: Aminopeptidase N assay. The assay is classed as biochemical. The following applies: read-out: % inhibition of the catalytic activity of the enzyme. As for the experimental part:
Aminopeptidase N assay. 5 mU of aminopeptidase M (Sigma Aldrich) was incubated with 100 μM of substrate alanine-β-naphthylamide (Sigma Aldrich) in Tris buffered saline (50 mM Tris-HCl, 150 mM NaCl pH 7.5) at 25° C. IRAP inhibitors (1-10 μM) were added after 1 minute and fluorescence at 405 nm was followed.
as §1

In assay [3] the target is Angiotensin converting enzyme 1 (Homo sapiens, UniProt P12821). In words: Angiotensin converting enzyme assay. The assay is classed as biochemical. The following applies: read-out: % inhibition of the catalytic activity of the enzyme. As to the method:
Angiotensin converting enzyme assay. The enzyme (final concentration 0.02 pmol/100 L) was incubated with 200 μL of assay solution that included 5 mmol/L HHL in 100 mmol/L potassium buffer (pH 8.3) that contained 300 mmol/L NaCl and 10^−4 mol/L ZnSO4 for 3 hours at 37° C. The enzymatic reaction was stopped by the addition of 1.5 mL of 0.28N NaOH, 100 μL of o-phthaldialdehyde (20 mg/mL) in methanol was added and the fluorescent reaction stopped by the addition of 200 μL of 3N HCl. The product, L-His-Leu, was measured fluorometrically (360 nm excitation and 500 nm emission).
as §1

Assay [4] deals with Glucose-6-phosphate dehydrogenase/glucose hexokinase. In words: Glucose-6-phosphate dehydrogenase and hexokinase activity, fluorimetric assay. The settings on record: 100 μM.
Method: Glucose-6-phosphate dehydrogenase and hexokinase activity. Glucose-6-phosphate dehydrogenase and hexokinase activity in the absence and presence of the compounds was determined in a fluorimetric assay. Ten mM Tris MgCl2 buffer (total volume of 200 ml) containing glucose-6-phosphate dehydrogenase, 0.3M ATP, 30 mM NADP+ was added to 96 well microtitre plate together with 20 μl of compound, a reading at excitation 350 nm and emission 510 nm was taken followed by the addition of hexokinase and another reading.
Assay [5] has as its target T3, IRAP (Homo sapiens, UniProt Q9UIQ6).
T3 construct: expressed in transfected cells; host or cells: HEK 293T
In words: IRAP enzymatic assay (hydrolysis of Leu-MCA). In kind it is biochemical. The settings on record: substrate Leu-MCA, solubilized membranes of HEK 293T cells transfected with IRAP. As to the method: An in vitro enzymatic assay was used to initially assess IRAP inhibitory activity.
After solubilization, the membranes were pelleted by centrifugation at 23,100 g for 15 min at 4° C., and the supernatant was reserved as the source of IRAP activity. The enzymatic activities of IRAP were determined by the hydrolysis of the synthetic substrate Leu-MCA (Sigma-Aldrich, Missouri, USA) monitored by the release of a fluorogenic product, MCA, at excitation and emission wavelengths of 380 and 440 nm, respectively. Assays were performed in 96-well plates; each well contains between […] solubilized membrane protein, a range of concentration of substrate in a final volume of 100 μL 50 mM Tris-HCl buffer (pH 7.4). Non-specific hydrolysis of the substrate was corrected by subtracting the emission from incubations with membranes transfected with empty vector. Reactions proceeded at 37° C. for 30 min within a thermostatted FLEX station fluorescence microplate reader (Molecular Devices, Sunnyvale, Calif.). […] Km values of IRAP for Leu-MCA were determined from the kinetic studies. […] All data obtained were from at least three separate experiments performed in duplicate.

Angiotensin converting enzyme 1, sequence (P12821 30-1306): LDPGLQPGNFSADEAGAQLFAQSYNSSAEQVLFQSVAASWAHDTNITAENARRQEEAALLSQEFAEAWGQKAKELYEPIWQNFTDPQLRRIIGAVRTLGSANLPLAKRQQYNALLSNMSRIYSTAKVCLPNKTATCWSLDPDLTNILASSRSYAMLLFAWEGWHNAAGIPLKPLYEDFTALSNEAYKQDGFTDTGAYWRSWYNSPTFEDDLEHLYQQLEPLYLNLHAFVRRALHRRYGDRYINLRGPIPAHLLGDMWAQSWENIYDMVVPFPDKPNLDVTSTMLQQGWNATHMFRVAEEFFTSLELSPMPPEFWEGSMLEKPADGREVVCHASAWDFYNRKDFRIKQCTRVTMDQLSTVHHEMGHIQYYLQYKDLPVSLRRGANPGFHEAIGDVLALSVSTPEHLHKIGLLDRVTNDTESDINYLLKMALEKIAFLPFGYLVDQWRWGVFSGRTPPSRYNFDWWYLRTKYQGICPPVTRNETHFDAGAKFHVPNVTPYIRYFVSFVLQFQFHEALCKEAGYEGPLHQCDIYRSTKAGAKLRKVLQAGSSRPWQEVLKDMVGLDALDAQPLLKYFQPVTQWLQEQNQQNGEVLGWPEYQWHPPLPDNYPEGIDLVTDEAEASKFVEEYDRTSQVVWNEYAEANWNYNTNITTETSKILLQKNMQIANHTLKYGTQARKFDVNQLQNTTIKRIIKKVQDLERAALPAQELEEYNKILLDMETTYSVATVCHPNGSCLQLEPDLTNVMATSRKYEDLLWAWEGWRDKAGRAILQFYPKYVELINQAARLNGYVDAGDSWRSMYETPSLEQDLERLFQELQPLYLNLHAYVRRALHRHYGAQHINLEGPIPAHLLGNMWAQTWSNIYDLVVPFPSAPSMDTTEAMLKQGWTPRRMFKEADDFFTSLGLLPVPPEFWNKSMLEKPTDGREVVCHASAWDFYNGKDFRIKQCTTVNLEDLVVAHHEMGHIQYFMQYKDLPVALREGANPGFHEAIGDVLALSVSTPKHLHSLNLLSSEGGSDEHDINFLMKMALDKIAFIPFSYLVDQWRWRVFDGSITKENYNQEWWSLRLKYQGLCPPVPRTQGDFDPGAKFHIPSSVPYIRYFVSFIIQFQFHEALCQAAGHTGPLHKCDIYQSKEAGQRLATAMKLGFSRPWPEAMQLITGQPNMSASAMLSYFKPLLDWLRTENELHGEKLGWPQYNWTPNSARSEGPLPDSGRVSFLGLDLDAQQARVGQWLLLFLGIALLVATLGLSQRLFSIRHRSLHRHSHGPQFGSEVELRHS
T3 sequence (Q9UIQ6 whole entry): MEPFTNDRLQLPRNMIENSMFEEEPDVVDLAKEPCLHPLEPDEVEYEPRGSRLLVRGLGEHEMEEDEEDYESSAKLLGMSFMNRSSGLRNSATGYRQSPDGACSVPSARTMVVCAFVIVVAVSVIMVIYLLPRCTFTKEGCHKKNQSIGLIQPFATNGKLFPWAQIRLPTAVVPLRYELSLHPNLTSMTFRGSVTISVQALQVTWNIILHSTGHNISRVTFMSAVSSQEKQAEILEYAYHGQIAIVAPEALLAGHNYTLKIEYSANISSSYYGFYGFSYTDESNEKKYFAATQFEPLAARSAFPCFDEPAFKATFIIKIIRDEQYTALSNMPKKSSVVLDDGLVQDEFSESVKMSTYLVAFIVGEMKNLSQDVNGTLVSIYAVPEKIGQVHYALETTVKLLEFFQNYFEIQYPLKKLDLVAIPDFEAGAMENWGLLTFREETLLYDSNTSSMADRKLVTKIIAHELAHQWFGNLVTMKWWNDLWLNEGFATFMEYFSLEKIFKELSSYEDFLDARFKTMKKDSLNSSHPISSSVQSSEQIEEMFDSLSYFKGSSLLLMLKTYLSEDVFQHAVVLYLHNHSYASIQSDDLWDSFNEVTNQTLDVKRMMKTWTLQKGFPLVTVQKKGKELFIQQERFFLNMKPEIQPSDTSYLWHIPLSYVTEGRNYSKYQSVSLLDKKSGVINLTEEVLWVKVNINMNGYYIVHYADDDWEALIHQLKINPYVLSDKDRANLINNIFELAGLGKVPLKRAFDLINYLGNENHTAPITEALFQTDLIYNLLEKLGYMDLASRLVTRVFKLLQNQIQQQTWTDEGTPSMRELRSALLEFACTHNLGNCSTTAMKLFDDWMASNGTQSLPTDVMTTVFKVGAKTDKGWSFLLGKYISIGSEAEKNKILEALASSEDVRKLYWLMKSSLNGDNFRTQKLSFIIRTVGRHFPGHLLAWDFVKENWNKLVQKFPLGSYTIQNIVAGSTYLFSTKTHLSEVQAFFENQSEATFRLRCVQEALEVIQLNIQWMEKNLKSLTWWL

Consider `CCOC(=O)C1=C(N)Oc2cc(O)ccc2C1c1cnc2ccccc2c1` (stereo not shown) [Compound 3, Ethyl 2-amino-7-hydroxy-4-quinolin-3-yl-4H-chromene-3-carboxylate], for which the figures for the inhibition at 100 µM in assay [1] and in assay [3] were 4% and 3%, respectively. In addition, the inhibition at 10 µM was found to be 12% in assay [2] and 0% in assay [3]. The “% inhibition of the catalytic activity of the enzyme” value in assay [4] is recorded as 0%.

Turning to `CCOC(=O)C1=C(NC(C)=O)Oc2cc(O)ccc2C1c1cnc2ccccc2c1` (stereo not shown) [Compound 4, Ethyl 2-(acetylamino)-7-hydroxy-4-quinolin-3-yl-4H-chromene-3-carboxylate], the values for the inhibition at 10 µM in assay [1] (10 μM), in assay [2] and in assay [3] were 0%, 3% and 0%, respectively. In addition, the inhibition at 100 µM in assay [1] was 25%; in assay [2] (100 μM) it was 14%; in assay [3] it was 0%.

The compound `CCOC(=O)C1=C(N)Oc2cc(O)ccc2C1c1cccnc1` (stereo not shown) [reference compound] displayed an IC50 in assay [5] of 3000 nM. Besides, in assay [5] (calculated from IC50=Ki(1+[S]/Km), read-out: K1), the Ki is 2000 nM.
